Reference: PMC7703437, “In Vitro Hepatic Metabolism of Curcumin Diethyl Disuccinate by Liver S9 from Different Animal Species” (Frontiers in Pharmacology, 2020)
Values joined by “and” are separate entries in the source; they are usually repeats but may differ in a detail not shown here. Equal entries are not always repeated.

Tests used:
[1] = In vitro metabolism profiling of CDD in human liver S9 (1 mg/ml); format: in vitro ADME; conditions: pooled liver S9; human LS9 1 mg/ml; read-out: t 1/2 (CDD)
Description: (§1) The metabolism profiles of CDD were investigated against HLS9, MLS9, DLS9, and RLS9. A stock solution of CDD was prepared at 150 µM in 50% acetonitrile in water before use. The metabolism study was initiated by spiking 735 µl of preincubated LS9 with 15 µl of CDD stock solution, and the mixture was subsequently incubated at 37°C. The final concentrations of CDD and LS9 were 3 μM and 1 mg/ml, respectively. A 50-µl aliquot from the mixture was collected at 0.5, 1, 2, 3, 4, 5, 10, 15, 30, 45, 60, 90, and 120 min and immediately mixed with 100 µl of ice-cold acetonitrile containing 0.45 µM of internal standard DMC to terminate the metabolic reaction. […] The sample at the initial time point (0 min) was prepared as the other samples, except that heat-inactivated HLS9, MLS9, DLS9, and RLS9 (80°C for 20 min; 1 mg/ml protein) were used.
(§2) The UHPLC system consisted of an Agilent series 1290 quaternary pump with an online degasser, autosampler, column oven, and diode array detector. The mobile phase was composed of (A) 0.1% (v/v) formic acid in acetonitrile and (B) 0.1% (v/v) formic acid in water. Each solution was filtered through a nylon filter (pore size, 0.22 µm; MS® Membrane Filters; Membrane Solutions, United States) before use. The mobile phase flow rate was kept at 1.2 ml/min in a gradient mode using the following elution program: 0–3.0 min, initial A-B (40:60, v/v); 4.5–7.0 min, isocratic elution A-B [50:50, (v/v); 8.5–11.0 min, isocratic elution A-B (60:40, v/v); and 12.0–17.0 min, isocratic elution A-B (40:60, v/v)]. CDD, curcumin, and MSCUR in the supernatant were partitioned using a C8 column (4.6 mm × 50 mm, 2.7 µm; HALO, Advanced Materials Technology, United States) with reference to DMC. The detection wavelength was set at 400 nm (λ max(CDD) = 400 nm, λ max(curcumin) = 427 nm, λ max(MSCUR) = 418 nm, and λ max(DMC) = 421 nm). The column was maintained at 35°C throughout the run, and the supernatant injection volume was set at 20 µl.
(§3) The concentrations of CDD, curcumin, and MSCUR in the supernatant were determined from the standard plots, which were prepared by spiking individual working solutions of the compounds to heat-inactivated HLS9, MLS9, DLS9, and RLS9 ([Alcorn et al., 2007]; [Montoro-Garcia et al., 2009]; [Singh et al., 2010]). These working standards were extracted with 100 µl of ice-cold acetonitrile containing 0.45 µM of DMC and then 120 μl of the supernatant was diluted with 40 μl of water prior to the UHPLC analysis. The peak area ratios of CDD, curcumin, and MSCUR to the internal standard were computed against linear concentration ranges of 0.025–4.5 µM CDD, 0.025–4.5 µM curcumin, and 0.0125–0.75 µM MSCUR, respectively, with the coefficient of determination (r^2) values greater than 0.99.
(§4) The percent content of CDD and the metabolites formed upon its incubation with LS9, namely, curcumin and MSCUR, was plotted against incubation time.
(§5) The following equations were adopted to describe the changes in CDD and MSCUR content over time (t): A = A0e^−k1t (2) B= k1A0/k2−k1(e^−k1t−e^−k2t), (3) where A0 is the CDD concentration at time 0, k 1 is the degradation rate constant of CDD, and k 2 is the degradation rate constant of MSCUR. k 1 and k 2 were determined by using Eqs. 2 and 3, respectively, with nonlinear regression analysis using the SOLVER function of Microsoft Excel for Office 365 MSO (16.0.12527.20986) ([Brown, 2001]). The half-life (t 1/2) was calculated using Eq. 4: t1/2=0.693/k (4)
(§6) The in vitro intrinsic clearance (CLint,in vitro) of CDD and MSCUR in LS9 was calculated using Eq. 5: CLint, in vitro= k × [V]incubation(ml)/[P]incubation(mg protein), (5) where [V]incubation is the incubation volume in ml, and [P]incubation is the amount of LS9. […]

[2] = tested on: human LS9 (HLS9; pooled); test: as above; format: in vitro ADME
Description: as §1, §2, §3, §4, §5, §6

[3] = In vitro metabolism profiling of CDD, statements for LS9 from all tested species; format: in vitro ADME, human, monkey, dog, rat; conditions: beagle (dog); Sprague-Dawley (rat), human, monkey, dog, rat, liver S9 (LS9); all LS9s; read-out: t 1/2 of CDD
Description: as §1, §2
The concentrations of CDD, curcumin, and MSCUR in the supernatant were determined from the standard plots, which were prepared by spiking individual working solutions of the compounds to heat-inactivated HLS9, MLS9, DLS9, and RLS9 ([Alcorn et al., 2007]; [Montoro-Garcia et al., 2009]; [Singh et al., 2010]). […]
as §5, with “2 and 3, respectively, with nonlinear regression analysis using the SOLVER function of Microsoft Excel for Office 365 MSO (16.0.12527.20986) ([Brown, 2001]).” left out

[4] = tested on: RLS9; test: CDD depletion in RLS9 0.02 mg/ml (optimisation of incubation condition); format: in vitro ADME, rat; conditions: CDD 3 μM
Description: The metabolism profiles of CDD and curcumin formation profile were investigated against HLS9, MLS9, DLS9 and RLS9. A stock solution of CDD was prepared at 150 µM in 50% acetonitrile in water before use. The metabolism study was initiated by spiking a 588 µl pre-incubated LS9 with 12 µl CDD stock solution, and subsequently incubated at 37°C. The final concentrations of CDD and LS9 were 3 µM and 0.02 mg/ml, respectively. A 50 µl aliquot from the mixture was collected at 0.5, 1, 2, 3, 4, 5, 10, 15, 30, 45 and 60 min and was immediately mixed with 100 µl of ice-cold acetonitrile containing 0.45 µM of internal standard DMC to terminate the metabolic reaction. […] Samples of 120 µl of supernatant wee diluted with 40 µl of water prior to UHPLC analysis (Agilent series 1290, Agilent Technology, USA) by means of protocol outlined in Materials and Methods:“In vitro Metabolism Profiling of Curcumin Diethyl Disuccinate”. The sample at 0 min was prepared as other samples except that heat-inactivated HLS9, MLS9, DLS9 and RLS9 (80°C for 20 min; 1 mg/ml protein) were used. Duplicates were conducted for each experiment.
The peak area ratios of CDD and curcumin to internal standard in the supernatant were determined. The percent contents of CDD and curcumin were plotted against incubation time. The depletion of CDD was calculated with reference to the initial concentration. The saturated substrate was defined as % depletion less than 30.

half-life [1]: 27.6 ± 3.6 s
CLint, in vitro(CDD) in HLS9 higher than in DLS9 ([2]; HLS9 vs DLS9): 1.8 fold
CLint, in vitro(CDD) in HLS9 higher than in MLS9 ([2]; HLS9 vs MLS9): 1.9 fold
CLint, in vitro(CDD) in HLS9 higher than in RLS9 ([2]; HLS9 vs RLS9): 2.2 fold
CLint, in vitro(CDD) ([2]; human LS9): 1.51 ± 0.22 ml min^−1 mg protein^−1
k 1 (CDD) ([2]; human LS9 1 mg/ml, CDD 3 µM, 37°C): 1.51 ± 0.22 min⁻¹
CLint, in vivo(CDD) ([2]; human, scaled from CLint,in vitro with physiologically based scaling factors): 282.18 ± 41.74 L/h/kg
CLint, in vivo total ([2]; human, sum of CLint,in vivo(CDD) and CLint,in vivo(MSCUR)): 2,533.38 ± 124.30 L h^−1 kg^−1
CLH (predicted hepatic clearance) ([2]; human, well-stirred model, QH 20 ml min^−1 kg^−1, fup 0.0594): 1.19 ± 4.61 × 10^–4 L h^−1 kg^−1
half-life at 3 µM [3]: < 62.4 s
% CDD remaining ([4]; 0.5 min): 82.81%
%Depletion of CDD ([4]; 0.5 min): 17.19%
% CDD remaining ([4]; 1 min): 78.14%
%Depletion of CDD ([4]; 1 min (selected incubation time)): 22% and 21.86%
% CDD remaining ([4]; 2 min): 62.71%
%Depletion of CDD ([4]; 2 min): 37.29%
% CDD remaining ([4]; 3 min): 56.54%
%Depletion of CDD ([4]; 3 min): 43.46%
% CDD remaining ([4]; 4 min): 46.44%
%Depletion of CDD ([4]; 4 min): 53.56%
% CDD remaining ([4]; 5 min): 40.58%
%Depletion of CDD ([4]; 5 min): 59.42%
SMILES: CCOC(=O)CCC(=O)Oc1ccc(/C=C/C(=O)/C=C(O)/C=C/c2ccc(OC(=O)CCC(=O)OCC)c(OC)c2)cc1OC [CDD, curcumin diethyl disuccinate]
